Reference: patent US6149912A (priority 1998, dated 2000)
Read-outs that look alike come from different tables or passages of the source.

Legend:
[1] = test system: S. typhimurium SL1344; assay type: in vivo, Salmonella typhimurium (in CF-1 mice); settings: for protective activity against bacterial infection (in words): glycoalkaloid vs aglycon, 8 LD50 i.p.; for survival, illness, weight loss and infection after multiple treatment (in words): multiple i.p. treatment, 5 days after infection / 12 day observation; for animals protected against massive doses: single or multiple injections, 25 LD50 i.p.
[2] = test system: mice; settings: cited from earlier work
[3] = LD50 (acute toxicity) in mice; settings: mouse, in vivo, 0.03-0.3 mg/kg vs LD50 42 mg/kg, read-out: effective dose relative to LD50 (times lower)
[4] = in vivo; cited from earlier work
[5] = test system: S. typhimurium; settings: mouse, in vivo; cited from earlier work
[6] = test system: S. typhimurium SL1344; set-up: species or system Salmonella typhimurium (in CF-1 mice); settings: mouse, in vivo
[7] = solanine 1 μg, solanidine or diosgenin 0.5 μg/mouse, inguinal pocket, 5 days before i.p. challenge (1.2 × 10^3 CFU, 8 LD50), 5 days post challenge
[8] = solanine 1 μg, solanidine or diosgenin 0.5 μg/mouse, inguinal pocket, 5 days before i.p. challenge (8 LD50), 5 days post challenge
[9] = 1 μg (or 0.5 μg + 0.5 μg) i.p. 3 times every other day before i.p. challenge (3.5 × 10^3 CFU, 25 LD50), 5 days post challenge
[10] = 1 μg (or 0.5 μg + 0.5 μg) i.p. 3 times every other day before i.p. challenge (25 LD50), 5 days post challenge, p < 0.001 vs control
[11] = single 1 μg dose five days prior to challenge with 25 LD50

Row | SMILES | protective activity against bacterial infection (in words) [1] | Survival rate [1, 7] | Liver Culture [1, 8] | Spleen Culture [1, 8] | LD50 [2] | Survival rate [1, 9] | Liver Culture [1, 10] | Spleen Culture [1, 10] | survival, illness, weight loss and infection after multiple treatment (in words) ([1]; 25 LD50) | Survival rate [1, 11] | animals protected against massive doses [1] | poisoning [4] | also measured
1 | C[C@@H]1CC[C@@]2(OC1)O[C@H]1C[C@H]3[C@@H]4CC=C5C[C@@H](O)CC[C@]5(C)[C@H]4CC[C@]3(C)[C@H]1[C@@H]2C [diosgenin, reference compound] | Neither solanidine nor diosgenin possessed any protective activity | 4/10 | 8.5 ± 3.3 CFU/500 mg × 10^6 | 4.8 ± 1.8 CFU/100 mg × 10^6 | – | – | – | – | – | – | – | – | –
2 | C[C@H]1CC[C@@H]2[C@@H](C)[C@H]3[C@H](C[C@H]4[C@@H]5CC=C6C[C@@H](O[C@@H]7O[C@H](CO)[C@@H](O[C@@H]8O[C@@H](C)[C@H](O)[C@@H](O)[C@H]8O)[C@H](O)[C@H]7O[C@@H]7O[C@@H](C)[C@H](O)[C@@H](O)[C@H]7O)CC[C@]6(C)[C@H]5CC[C@]34C)N2C1 [chaconine] | – | – | – | – | 42 mg/kg | 8/8 | 0.12 ± 0.09 CFU/500 mg × 10^6 | 0.03 ± 0.01 CFU/100 mg × 10^6 | no signs of illness or weight loss during a 12 day observation period | ~75% | sixty to a hundred percent of the animals were protected | can cause poisoning | LD50 ([2]; listed as Chaconine): 40 to 50 mg/kg; therapeutic index (LD50 / effective dose) [3]: 100 to 1000
3 | CC(=O)N[C@H]1C(O)O[C@H](CO)[C@@H](O)[C@@H]1O[C@H](C)C(=O)N[C@@H](C)C(=O)N[C@H](CCC(=O)O)C(N)=O (some centres unmarked) [muramyldipeptide] | – | – | – | – | – | – | – | – | – | – | – | – | mice protected [5]: 50%
4 | C[C@H]1CC[C@@H]2[C@@H](C)[C@H]3[C@H](C[C@H]4[C@@H]5CC=C6C[C@@H](O)CC[C@]6(C)[C@H]5CC[C@]34C)N2C1 [solanidine, reference compound] | Neither solanidine nor diosgenin possessed any protective activity | 3/10 | 5.3 ± 2.4 CFU/500 mg × 10^6 | 1.7 ± 0.6 CFU/100 mg × 10^6 | – | – | – | – | – | – | – | – | –
5 | C[C@H]1CC[C@@H]2[C@@H](C)[C@H]3[C@H](C[C@H]4[C@@H]5CC=C6C[C@@H](O[C@@H]7O[C@H](CO)[C@H](O)[C@H](O[C@@H]8O[C@H](CO)[C@@H](O)[C@H](O)[C@H]8O)[C@H]7O[C@@H]7O[C@@H](C)[C@H](O)[C@@H](O)[C@H]7O)CC[C@]6(C)[C@H]5CC[C@]34C)N2C1 [solanine] | only solanine was able to effectively protect mice against the bacterial infection | 9/10 | 0.8 ± 0.5 CFU/500 mg × 10^6 | 0.8 ± 0.5 CFU/100 mg × 10^6 | 42 mg/kg | 8/8 | 0.08 ± 0.07 CFU/500 mg × 10^6 | 0.08 ± 0.02 CFU/100 mg × 10^6 | no signs of illness or weight loss during a 12 day observation period | approximately 40% | sixty to a hundred percent of the animals were protected | can cause poisoning | LD50 ([2]; listed as Solanine): 40 to 50 mg/kg; animals with enhanced resistance to infection (FIG. 1) ([1]; single 0.1, 1.0 or 10.0 μg, challenge (25 LD50) 1, 7 or 14 days later): 40-70%; duration of enhanced host resistance ([1]; single treatment, 1.0 and 10.0 μg, 25 LD50): at least 2 weeks; Fecal Culture [6]: 20.0 ± 3.5; Liver Culture [6]: 0.3 ± 0.1; Spleen Culture [6]: 2.0 ± 0.2; Survival rate [6]: 5/5
